Test results reported in US20230226084A1, “NON-INVASIVE METHOD OF TREATING COVID-19 INFECTION” (priority 2022, published 2023).

System: COVID-19 infection
Assay type: in vivo
Settings: one subject
[1] = confirmed COVID-19, furosemide orally twice daily, 40 mg mornings and 20 mg at 6 hours interval, for 3 days

For NS(=O)(=O)c1cc(C(=O)O)c(NCc2ccco2)cc1Cl [furosemide], the “Subsidence of symptoms (cough, headache, body ache, fever, breathing difficulties)” value [1] was “subsided on the second day”, the “Total recovery of the subject” value [1] was “totally recovered by night on the third day” and the “Infection status per Government hospital certificate, a while after treatment” value (after furosemide orally for 3 days) was “negative status for the infection”.
